For 23 compounds, IC50 results are on record in patent publication US8329726B2, “Inhibitors of VEGF receptor and HGF receptor signaling” (MethylGene Inc., priority 2005, dated 2012).

One assay deals with T1, TPR-MET fusion protein (Homo sapiens, UniProt P08581).
T1 construct: the MET gene on chromosome 7 encoding for its cytoplasmic region catalytic domain; host or cells: MNNGHOS cells; the other entry of the earlier key: TPR (P12270, Nucleoprotein TPR)
The assay is described as follows: C-Met phosphorylation cell-based assay (MNNGHOS cells). An excerpt: C-Met Phosphorylation Cell-Based Assay
Signal was quantitated by densitometry on Alpha-Imager.

The target of assay [1] is T2, recombinant human c-Met/HGF receptor (Homo sapiens, UniProt P08581).
T2 construct: His tag (pBlueBacHis2A vector); made in house; host or cells: Hi-5 cells (Trichoplusia ni), baculovirus
T2 sequence (P08581 1078-1337): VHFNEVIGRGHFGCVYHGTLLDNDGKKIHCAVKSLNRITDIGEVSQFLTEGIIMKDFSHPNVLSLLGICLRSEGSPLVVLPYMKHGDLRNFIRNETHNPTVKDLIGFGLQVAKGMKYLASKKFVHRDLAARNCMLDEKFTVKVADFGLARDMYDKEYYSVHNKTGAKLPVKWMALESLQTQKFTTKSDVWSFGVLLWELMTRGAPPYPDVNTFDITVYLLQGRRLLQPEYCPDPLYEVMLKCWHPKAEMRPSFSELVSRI
As to the kind of experiment: In vitro receptor tyrosine kinase assay (DELFIA), c-Met/HGF receptor. It is filed as biochemical. The protocol:
Cell pellets were frozen at −80° C. until purification was performed.
The coated plates were washed and stored at 4° C. […] After incubation, the kinase reactions were quenched with EDTA and the plates were washed.

Another assay concerns the target T3, VEGF receptor KDR (Homo sapiens, UniProt P35968).
T3 construct: made in house; host or cells: Sf9 cells (Spodoptera frugiperda), baculovirus
As to the kind of experiment: In vitro receptor tyrosine kinase assay (DELFIA), VEGF receptor KDR. The class given is biochemical.

The subject of another assay is A549. The assay is described as follows: A549 wound healing inhibition (HGF dependent migration). It is filed as cell-based. As to conditions: Homo sapiens, A549 cells, read-out: A549 WOUND HEALING INHIB IC50. An excerpt:
(§1) HGF has well known activity in terms of inducing scattering and migration (wound healing) (Wells et al., Cell Motil Cytoskeleton. 2005 November 62(3):180-94; Miura et al., Urology 2001 December 58(6):1064-9; Nishimura et al., Int J Urol. 1998 May 5(3):276-81; Wang et al., Mol Cancer Ther. 2003 November; 2(11):1085-92; and Christensen et al., Cancer Res. 2003 Nov. 1; 63(21):7345-55).

The test system of another assay is DU145. The assay is described as follows: DU145 scattering inhibition (HGF dependent scattering). Conditions: Homo sapiens, DU-145; HGF dependent scattering, DU145 cells; read-out: DU145 SCATTERING INHIB IC50. It is filed as cell-based.
Excerpt: as §1

[2] abbreviates: GST-VEGFR2 806-1356, 0.6 uM ATP, DELFIA, read-out: VEGFR (IC50).
The mark [3] stands for this setting: MNNGHOS cells, 3 hours treatment, immunoblot, read-out: Y1230-34-35 TPR-MET phosphorylation (IC50).
The mark [4] stands for this setting: recombinant c-Met IC, 10 uM ATP, DELFIA, read-out: C-Met (IC50).

Read-outs that look alike come from different tables or passages of the source.

T1 sequence (P08581 with tags, fused parts or gaps): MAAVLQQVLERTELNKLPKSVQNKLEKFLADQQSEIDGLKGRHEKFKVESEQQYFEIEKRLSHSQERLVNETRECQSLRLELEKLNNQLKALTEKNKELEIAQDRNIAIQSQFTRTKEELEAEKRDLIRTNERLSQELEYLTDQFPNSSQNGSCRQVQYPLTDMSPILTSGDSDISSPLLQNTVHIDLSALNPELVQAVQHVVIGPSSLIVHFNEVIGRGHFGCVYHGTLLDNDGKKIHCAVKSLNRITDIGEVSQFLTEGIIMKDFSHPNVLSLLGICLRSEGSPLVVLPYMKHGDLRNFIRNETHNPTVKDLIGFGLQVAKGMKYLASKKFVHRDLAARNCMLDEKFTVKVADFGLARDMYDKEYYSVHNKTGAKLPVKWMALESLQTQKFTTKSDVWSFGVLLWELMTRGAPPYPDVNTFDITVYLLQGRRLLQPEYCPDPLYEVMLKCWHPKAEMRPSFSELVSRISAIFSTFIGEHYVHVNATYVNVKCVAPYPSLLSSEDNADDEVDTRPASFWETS
T3 sequence (P35968 806-1356): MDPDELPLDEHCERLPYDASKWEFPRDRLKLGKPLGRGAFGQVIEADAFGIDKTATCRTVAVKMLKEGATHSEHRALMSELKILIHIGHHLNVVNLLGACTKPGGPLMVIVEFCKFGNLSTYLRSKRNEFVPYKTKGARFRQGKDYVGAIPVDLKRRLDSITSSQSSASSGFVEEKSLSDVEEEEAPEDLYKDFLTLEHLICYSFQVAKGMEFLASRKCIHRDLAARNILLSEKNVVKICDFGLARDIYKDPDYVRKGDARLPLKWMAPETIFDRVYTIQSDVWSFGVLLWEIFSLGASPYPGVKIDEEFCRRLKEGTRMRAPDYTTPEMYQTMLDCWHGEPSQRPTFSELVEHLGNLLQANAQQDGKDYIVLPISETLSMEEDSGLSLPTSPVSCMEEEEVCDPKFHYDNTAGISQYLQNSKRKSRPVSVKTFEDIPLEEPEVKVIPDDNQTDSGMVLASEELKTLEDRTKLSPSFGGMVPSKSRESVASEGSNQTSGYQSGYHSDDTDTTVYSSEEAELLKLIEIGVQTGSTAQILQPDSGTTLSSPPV

For orientation: IC50 means the midpoint of a concentration-inhibition curve. As for `Cn1cncc1-c1cc2nccc(Oc3ccc(NC(=O)CC(=O)Nc4ccccc4)cc3F)c2s1` [Compound 5e, N^1-(3-Fluoro-4-(2-(1-methyl-1H-imidazol-5-yl)thieno[3,2-b]pyridin-7-yloxy)phenyl)-N^3-phenylmalonamide], the IC50 against TPR-MET fusion protein was determined as 155 nM; in assay [1] it was 16 nM; on VEGF receptor KDR (setting [2]) it was 5 nM.
Regarding `CN(C(=O)CC(=O)Nc1ccc(Oc2ccnc3cc(-c4nccn4C)sc23)c(F)c1)c1ccccc1` [Compound 32, N^1-(3-Fluoro-4-(2-(1-methyl-1H-imidazol-2-yl)thieno[3,2-b]pyridin-7-yloxy)phenyl)-N^3-methyl-N^3-phenylmalonamide], the figures for the IC50 (at TPR-MET fusion protein (setting [3]); in assay [1] (setting [4]); at VEGF receptor KDR (setting [2])) were > 5000 nM, 109 nM and 5 nM, respectively.
For `COc1ccccc1NC(=O)CC(=O)Nc1ccc(Oc2ccnc3cc(-c4nccn4C)sc23)c(F)c1` [Compound 28a, N^1-(3-Fluoro-4-(2-(1-methyl-1H-imidazol-2-yl)thieno[3,2-b]pyridin-7-yloxy)phenyl)-N^3-(2-methoxyphenyl)malonamide], the IC50 on TPR-MET fusion protein (setting [3]) was ~200 nM; in assay [1] (setting [4]), 42 nM; on VEGF receptor KDR (setting [2]), 5 nM.
Taken in the same sequence, the figures for `Cn1ccnc1-c1cc2nccc(Oc3ccc(NC(=O)CC(=O)Nc4ccccc4F)cc3F)c2s1` [Compound 30a, N^1-(3-Fluoro-4-(2-(1-methyl-1H-imidazol-2-yl)thieno[3,2-b]pyridin-7-yloxy)phenyl)-N^3-(2-fluorophenyl)malonamide] were 28 nM, 31 nM and 5 nM.
Taken in the same sequence, the figures for `Cn1cnc(-c2cc3nccc(Oc4ccc(NC(=O)CC(=O)Nc5ccccc5)cc4F)c3s2)c1` [Compound 5c, N^1-{3-Fluoro-4-[2-(1-methyl-1H-imidazol-4-yl)thieno[3,2-b]pyridin-7-yloxy]-phenyl}-N^3-phenylmalonamide] were 8 nM, 19 nM and 3 nM.
The like results for `Cn1ccnc1-c1cc2nccc(Oc3ccc(NC(=O)CC(=O)Nc4ccccc4)cc3F)c2s1` [Compound 5b, N^1-(3-Fluoro-4-(2-(1-methyl-1H-imidazol-2-yl)thieno[3,2-b]pyridin-7-yloxy)phenyl)-N^3-phenylmalonamide] were, in that order, 40 nM, 52 nM and 4 nM.
Consider `O=C(CC(=O)Nc1ccc(Oc2ccnc3cc(C(=O)N4CCCC4)sc23)c(F)c1)Nc1ccccc1` [Compound 5f, N^1-(3-Fluoro-4-(2-(pyrrolidine-1-carbonyl)thieno[3,2-b]pyridin-7-yloxy)phenyl)-N^3-phenylmalonamide], for which the concentration for half-maximal inhibition (IC50) is ~2000 nM on TPR-MET fusion protein (setting [3]), 40 nM in assay [1] (setting [4]) and 4 nM on VEGF receptor KDR (setting [2]).
Take `COc1ccccc1NC(=O)CC(=O)Nc1ccc(Oc2ccnc3cc(-c4cncn4C)sc23)c(F)c1` [Compound 28c, N^1-(3-Fluoro-4-(2-(1-methyl-1H-imidazol-5-yl)thieno[3,2-h]pyridin-7-yloxy)phenyl)-N^3-(2-methoxyphenyl)malonamide]: the 50% inhibitory concentration (IC50) at TPR-MET fusion protein (setting [3]) was 590 nM; in assay [1] (setting [4]), 40 nM; at VEGF receptor KDR (setting [2]) it was 13 nM.
The like results for `Cn1ccnc1-c1cc2nccc(Oc3ccc(NC(=O)CC(=O)Nc4ccncc4)cc3F)c2s1` [Compound 34, N^1-{3-Fluoro-4-[2-(1-methyl-1H-imidazol-2-yl)-thieno[3,2-b]pyridin-7-yloxy]-phenyl}-N^3-pyridin-4-yl-malonamide] were, in that order, > 5000 nM, 365 nM and 19 nM.
On to `COc1ccccc1NC(=O)CC(=O)Nc1ccc(Oc2ccnc3cc(-c4cn(C(C)C)cn4)sc23)c(F)c1`, for which the IC50 in the assay with A549 was < 1000 nM; in the assay on DU145, < 1000 nM; in assay [1] (read-out: CMET IC50), < 50 nM; at VEGF receptor KDR (read-out: VEGFR IC50), < 50 nM.
As for `CC(C)N(C(=O)CC(=O)Nc1ccc(Oc2ccnc3cc(C4=CCN(C)CC4)sc23)c(F)c1)c1ccccc1`, the IC50 was > 10000 nM with A549, > 10000 nM in the assay with DU145, 250 to 500 nM in assay [1] (read-out: CMET IC50) and > 500 nM on VEGF receptor KDR (read-out: VEGFR IC50).
`Cn1cnc(-c2cc3nccc(Oc4ccc(NC(=O)C5CCN(c6cccnc6)C5=O)cc4F)c3s2)c1` (centres unmarked): the IC50 in the assay on A549 lay in the range of 1000 to 5000 nM; in the assay with DU145 it was 1000 to 5000 nM; in assay [1] (read-out: CMET IC50), 250 to 500 nM; on VEGF receptor KDR (read-out: VEGFR IC50) it was 250 to 500 nM.
In the case of `CN(C)CCn1cnc(-c2cc3nccc(Oc4ccc(NC(=O)CC(=O)Nc5ccccc5F)cc4F)c3s2)c1`, the IC50 in the assay with A549 was < 1000 nM; in the assay with DU145, < 1000 nM; in assay [1] (read-out: CMET IC50), < 50 nM; at VEGF receptor KDR (read-out: VEGFR IC50), < 50 nM.
With `CN1CCN(CCN(C)Cc2ccc(-c3cc4nccc(Oc5ccc(NC(=O)CC(=O)Nc6cccc(F)c6)cc5F)c4s3)cc2)CC1`, the IC50 was 1000 to 5000 nM in the assay on A549, 1000 to 5000 nM in the assay on DU145, 50 to 250 nM in assay [1] (read-out: CMET IC50) and < 50 nM on VEGF receptor KDR (read-out: VEGFR IC50).
As to `COc1ccccc1NC(=O)CC(=O)Nc1ccc(Oc2ccnc3cc(N4CCCC4=O)sc23)c(F)c1`, the IC50 was < 1000 nM in the assay with A549, < 1000 nM in the assay with DU145, 50 to 250 nM in assay [1] (read-out: CMET IC50) and 50 to 250 nM on VEGF receptor KDR (read-out: VEGFR IC50).
For `COCCNCc1ccc(-c2cc3nccc(Oc4ccc(NC(=O)N5CCN(c6ccccc6)C5=O)cc4F)c3s2)cc1`, the IC50 was < 1000 nM with A549, < 1000 nM with DU145, < 50 nM in assay [1] (read-out: CMET IC50) and < 50 nM at VEGF receptor KDR (read-out: VEGFR IC50).
With `COCCn1cnc(-c2cc3nccc(Oc4ccc(NC(=O)CC(=O)Nc5ccccc5)cc4F)c3s2)c1`, the concentration for half-maximal inhibition (IC50) is < 1000 nM in the assay with A549, < 1000 nM with DU145, < 50 nM in assay [1] (read-out: CMET IC50) and < 50 nM at VEGF receptor KDR (read-out: VEGFR IC50).
Turning to `CN(C)CCCN(C)Cc1ccc(-c2cc3nccc(Oc4ccc(NC(=O)CC(=O)N(C)c5ccccc5)cc4F)c3s2)cc1`, the IC50 was < 1000 nM in the assay with A549, < 1000 nM with DU145, < 50 nM in assay [1] (read-out: CMET IC50) and < 50 nM at VEGF receptor KDR (read-out: VEGFR IC50).
In the case of `O=C(CC(=O)Nc1ccc(Oc2ccnc3cc(-c4cn(CCO)cn4)sc23)c(F)c1)Nc1ccccc1`, the IC50 in the assay on A549 was < 1000 nM; in the assay on DU145 it was < 1000 nM; in assay [1] (read-out: CMET IC50) it was < 50 nM; on VEGF receptor KDR (read-out: VEGFR IC50), < 50 nM.
`CN1CCN(CCN(C)Cc2ccc(-c3cc4nccc(Oc5ccc(NC(=O)CC(=O)Nc6ccccc6)cc5F)c4s3)cc2)CC1` [drawing 351]: the concentration for half-maximal inhibition (IC50) with A549 was < 1000 nM; with DU145, < 1000 nM; in assay [1] (read-out: CMET IC50), < 50 nM; at VEGF receptor KDR (read-out: VEGFR IC50), < 50 nM.
Regarding `Cn1cnc(-c2cc3nccc(Oc4ccc(NC(=O)N5CCN(C6CCCCC6)C5=O)cc4F)c3s2)c1`, the IC50 in the assay on A549 was 1000 to 5000 nM; in the assay with DU145 it was < 1000 nM; in assay [1] (read-out: CMET IC50), < 50 nM; on VEGF receptor KDR (read-out: VEGFR IC50) it was < 50 nM.
Consider `COc1ccccc1NC(=O)CC(=O)Nc1ccc(Oc2ccnc3cc(C(=O)NN(C)C)sc23)c(F)c1`, for which the IC50 in the assay on A549 was 1000 to 5000 nM; in the assay on DU145, 1000 to 5000 nM; in assay [1] (read-out: CMET IC50), 250 to 500 nM; on VEGF receptor KDR (read-out: VEGFR IC50), > 500 nM.
Take `CN(C(=O)CC(=O)Nc1ccc(Oc2ccnc3cc(C(=O)N(C)N(C)C)sc23)c(F)c1)c1ccccc1`: the IC50 was > 10000 nM with A549, > 10000 nM with DU145, 250 to 500 nM in assay [1] (read-out: CMET IC50) and > 500 nM at VEGF receptor KDR (read-out: VEGFR IC50).
